Measured values reported in patent US20240140938A1, “PREPARATION OF TETRAHYDROINDAZOLE DERIVATIVES AS NOVEL DIACYLGLYCERIDE O-ACYLTRANSFERASE 2 INHIBITORS” (MERCK SHARP & DOHME LLC, priority 2020, published 2024).

Molecular target: human DGAT2 (hDGAT2) (Homo sapiens (Human), UniProt Q96PD7)
Experiment: DGAT2 Enzymatic Activity Assay
Type: biochemical
Details: hDGAT2 Sf-9 membrane prep, 13C18-triolein product by LC/MS/MS
Method: Sf-9 insect cells were maintained in Grace's insect cell culture medium with 10% heated-inactivated fetal bovine serum, 1% Pluronic F-68 and 0.14 μg/ml Kanamycine sulfate at 27° C. in a shaker incubator. After infection with untagged baculovirus expressing human DGAT2 (hDGAT2) at multiplicity of infection (MOI) 3 for 48 hours, cells were harvested. Cell pellets were suspended in buffer containing 10 mM Tris-HCl pH 7.5, 1 mM EDTA, 250 mM sucrose and Complete Protease Inhibitor Cocktail (Sigma Aldrich), and sonicated on ice. Cell debris were removed by centrifugation at 2000×g for 15 minutes. Membrane fractions were isolated by ultracentrifugation (100,000×g), resuspended in the same buffer, and frozen (−80° C.) for later use. The protein concentration was determined with the Pierce™ BCA Protein Assay Kit (Thermo Fisher Scientific).
LC/MS/MS analyses were performed using Thermal Fisher's LX4-TSQ Vantage system. This system consists of an Agilent binary high-performance liquid chromatography (HPLC) pump and a TSQ Vantage triple quadrupole MS/MS instrument. For each sample, 2 μL samples from the top organic layer of in-plate liquid-liquid extraction were injected onto a Thermo Betabasic C4 column (2.1 mm×20 mm, 5 μm particle size). The samples were then eluted using the following conditions; mobile phase: Isopropanol: acetonitrile/10 mM ammonium formate=50/35/15 (v/v/v), flow rate: 0.8 mL/min, temperature: 25° C. Data was acquired in positive mode using a heated electrospray ionization (HESI) interface. […] The peak area was integrated by Xcalibur Quan software. The ratio between the ^13C18triolein generated in the reaction and spiked in internal standard ^13C21-triolein was used to generate percentage inhibition and IC50 values. Compound percentage inhibition was calculated by the following formula: Inhibition %=1−[(compound response−low control)/(high control−low control)]×100%.
DGAT2 activity was determined by measuring the amount of enzymatic product ^13C18-triolein (^13C-1,2,3-Tri(cis-9-octadecenoyl)glycerol) using the membrane prep mentioned above. The assay was carried out in ABgene 384-well assay plates in a final volume of 25 μL at rt.

[1] = 25 μM diolein, 5 μM 13C oleoyl-CoA

Chain of human DGAT2 (hDGAT2) (Q96PD7 whole entry): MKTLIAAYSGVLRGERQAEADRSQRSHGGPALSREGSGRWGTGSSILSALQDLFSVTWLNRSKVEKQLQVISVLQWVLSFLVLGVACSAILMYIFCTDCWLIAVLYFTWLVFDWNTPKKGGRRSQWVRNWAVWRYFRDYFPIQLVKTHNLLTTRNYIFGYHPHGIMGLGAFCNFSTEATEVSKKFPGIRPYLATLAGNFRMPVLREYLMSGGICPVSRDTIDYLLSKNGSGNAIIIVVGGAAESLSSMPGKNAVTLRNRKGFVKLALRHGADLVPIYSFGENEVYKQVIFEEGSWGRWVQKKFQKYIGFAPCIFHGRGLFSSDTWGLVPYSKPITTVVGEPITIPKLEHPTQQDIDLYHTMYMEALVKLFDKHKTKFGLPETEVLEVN

IC50 [1] [µM]	IC50 (unit given as nm) [µM]	SMILES
0.178	–	C[C@]1(NC(=O)[C@H]2Cc3c(c(-c4cccc(OC(F)F)c4)nn3C3CCOCC3)C(F)(F)C2)CCS(=O)(=O)C1 (single isomer, unassigned) [Example 117b]
0.0321	–	CC(C(F)F)n1nc(-c2cc(OC(F)F)ccc2F)c2c1C[C@H](C(=O)NC1(C)CCS(=O)(=O)CC1)CC2 (single isomer, unassigned) [Example 49a]
0.129	–	CC1(NC(=O)[C@@H]2CCc3c(-c4cc(OC(F)F)ccc4F)nn(C4CCCC4O)c3C2)CS(=O)(=O)C1 (single isomer, unassigned) [Example 114b]
0.0198	–	CC(C(F)F)n1nc(-c2cc(OC(F)F)ccc2F)c2c1C[C@H](C(=O)NC1(C)CS(=O)(=O)C1)CC2 (single isomer, unassigned) [Example 48b]
3.9	–	C[C@]1(NC(=O)[C@H]2CCc3c(-c4ccccc4Cl)nn(-c4ccc(F)cc4)c3C2)CCS(=O)(=O)C1 (single isomer, unassigned) [Example 1a]
7.61	–	CC(C)n1nc(-c2cccc(OC(F)F)c2)c2c1CC(C(=O)NC1(C)CS(=O)(=O)C1)OC2 (single isomer, unassigned) [EX-134b, 3-(3-(difluoromethoxy)phenyl)-1-isopropyl-N-(3-methyl-1,1-dioxidothietan-3-yl)-1,4,6,7-tetrahydropyrano[4,3-c]pyrazole-6-carboxamide]
0.105	–	CC1(NC(=O)[C@@H]2CCc3c(-c4cc(OC(F)F)ccc4F)nn(C4CCCC4O)c3C2)CS(=O)(=O)C1 (single isomer, unassigned) [Example 114d]

Continued, compound first:

SMILES	IC50 [1] [µM]	IC50 (unit given as nm) [µM]
CCOc1ccc(F)c(-c2nn(C(C)C)c3c2CC[C@@H](C(=O)NC2(C)CCS(=O)(=O)CC2)C3)c1 [Example 54, (R)-3-(5-ethoxy-2-fluorophenyl)-1-isopropyl-N-(4-methyl-1,1-dioxidotetrahydro-2H-thiopyran-4-yl)-4,5,6,7-tetrahydro-1H-indazole-6-carboxamide]	0.0018	–
C[C@]1(NC(=O)[C@@H]2CCc3c(-c4cccc(OC(F)F)c4)nn(C4CCS(=O)(=O)CC4)c3C2)CCS(=O)(=O)C1 [Example 24, (R)-3-(3-(difluoromethoxy)phenyl)-1-(1,1-dioxidotetrahydro-2H-thiopyran-4-yl)-N-((S)-3-methyl-1,1-dioxidotetrahydrothiophen-3-yl)-4,5,6,7-tetrahydro-1H-indazole-6-carboxamide]	0.144	–
Cn1nccc1-c1nn(-c2ccc(F)cn2)c2c1CC[C@@H](C(=O)N[C@@]1(C)CCS(=O)(=O)C1)C2 [Example 20, (R)-1-(5-fluoropyridin-2-yl)-N-((S)-3-methyl-1,1-dioxidotetrahydrothiophen-3-yl)-3-(1-methyl-1H-pyrazol-5-yl)-4,5,6,7-tetrahydro-1H-indazole-6-carboxamide]	8.43	–
CC(C)n1nc(-c2cccc(OC(F)F)c2)c2c1C[C@H](C(=O)N[C@@]1(C)CCS(=O)(=O)C1)CC2 [Example 25, (R)-3-(3-(difluoromethoxy)phenyl)-1-isopropyl-N-((S)-3-methyl-1,1-dioxidotetrahydrothiophen-3-yl)-4,5,6,7-tetrahydro-1H-indazole-6-carboxamide]	0.0598	–
CC(C)n1nc(-c2cncc(OC(F)F)c2)c2c1C[C@H](C(=O)N[C@@H](C)CN1CCO[C@H](C)C1)CC2 [Example 68, (R)-3-(5-(difluoromethoxy)pyridin-3-yl)-1-isopropyl-N-((S)-1-((R)-2-methylmorpholino)propan-2-yl)-4,5,6,7-tetrahydro-1H-indazole-6-carboxamide]	> 10	–
COCC(C)(C)NC(=O)[C@@H]1CCc2c(-c3cccc(OC(F)F)c3)nn(C(C)C)c2C1 [Example 66, (R)-3-(3-(difluoromethoxy)phenyl)-1-isopropyl-N-(1-methoxy-2-methylpropan-2-yl)-4,5,6,7-tetrahydro-1H-indazole-6-carboxamide]	1.33	–
C[C@]1(NC(=O)[C@@H]2CCc3c(-c4cccc(OC(F)F)c4)nn(-c4ccc(F)cn4)c3C2)CCS(=O)(=O)C1 [Example 3, (R)-3-(3-(difluoromethoxy)phenyl)-1-(5-fluoropyridin-2-yl)-N-((S)-3-methyl-1,1-dioxidotetrahydrothiophen-3-yl)-4,5,6,7-tetrahydro-1H-indazole-6-carboxamide]	0.0049	–
C[C@]1(NC(=O)C2CCc3c(-c4cncc(OC(F)F)c4)nn(-c4nnc(C5CC5)s4)c3C2)CCS(=O)(=O)C1 (stereo partly drawn) [Example 5, 1-(5-cyclopropyl-1,3,4-thiadiazol-2-yl)-3-(5-(difluoromethoxy)pyridin-3-yl)-N-((S)-3-methyl-1,1-dioxidotetrahydrothiophen-3-yl)-4,5,6,7-tetrahydro-1H-indazole-6-carboxamide]	0.542	–
CC(C)n1nc(-c2cc(OC3CC3)ccc2F)c2c1C[C@H](C(=O)NC1(C)CS(=O)(=O)C1)CC2 [Example 85, (R)-3-(5-cyclopropoxy-2-fluorophenyl)-1-isopropyl-N-(3-methyl-1,1-dioxidothietan-3-yl)-4,5,6,7-tetrahydro-1H-indazole-6-carboxamide]	0.0156	–
CC1(NC(=O)[C@@H]2CCc3c(-c4cc(OC(F)F)ccc4F)nn(C4CCC4)c3C2)CS(=O)(=O)C1 [Example 57, (R)-1-cyclobutyl-3-(5-(difluoromethoxy)-2-fluorophenyl)-N-(3-methyl-1,1-dioxidothietan-3-yl)-4,5,6,7-tetrahydro-1H-indazole-6-carboxamide]	0.0228	–
CCOC(=O)N1CCC(C)(NC(=O)[C@@H]2CCc3c(-c4cc(OC(F)F)ccc4F)nn(C(C)C)c3C2)C1 (stereo partly drawn) [Example 59, ethyl 3-((R)-3-(5-(difluoromethoxy)-2-fluorophenyl)-1-isopropyl-4,5,6,7-tetrahydro-1H-indazole-6-carboxamido)-3-methylpyrrolidine-1-carboxylate]	0.061	–
C[C@]1(NC(=O)[C@@H]2CCc3c(-c4cccc(OC(F)F)c4)nn(C(=O)C4CCOCC4)c3C2)CCS(=O)(=O)C1 [Example 75, (R)-3-(3-(difluoromethoxy)phenyl)-N-((S)-3-methyl-1,1-dioxidotetrahydrothiophen-3-yl)-1-(tetrahydro-2H-pyran-4-carbonyl)-4,5,6,7-tetrahydro-1H-indazole-6-carboxamide]	> 10	–
CC(C)n1nc(-c2cncc(C(=O)NC(C)(C)C)c2)c2c1C[C@H](C(=O)NC1(C)CS(=O)(=O)C1)CC2 [Example 95, (R)-3-(5-(tert-butylcarbamoyl)pyridin-3-yl)-1-isopropyl-N-(3-methyl-1,1-dioxidothietan-3-yl)-4,5,6,7-tetrahydro-1H-indazole-6-carboxamide]	> 10	–
CC(C)n1nc(-c2cc(OC(F)F)cnc2C(F)F)c2c1C[C@H](C(=O)NC1(C)CCS(=O)(=O)CC1)CC2 [Example 42, (R)-3-(5-(difluoromethoxy)-2-(difluoromethyl)pyridin-3-yl)-1-isopropyl-N-(4-methyl-1,1-dioxidotetrahydro-2H-thiopyran-4-yl)-4,5,6,7-tetrahydro-1H-indazole-6-carboxamide]	0.296	–
CC1(NC(=O)C2Cc3c(c(-c4cccc(OC(F)F)c4)nn3C3CCOCC3)C(F)(F)C2)CCS(=O)(=O)C1 (stereo not shown) [Example 117, 3-(3-(difluoromethoxy)phenyl)-4,4-difluoro-N-(3-methyl-1,1-dioxidotetrahydrothiophen-3-yl)-1-(tetrahydro-2H-pyran-4-yl)-4,5,6,7-tetrahydro-1H-indazole-6-carboxamide]	–	0.499
CC(C)(N)c1cccc(-c2nn(-c3ccc(F)cc3)c3c2CC[C@@H](C(=O)N[C@@]2(C)CCS(=O)(=O)C2)C3)c1 [Example 18, (R)-3-(3-(2-aminopropan-2-yl)phenyl)-1-(4-fluorophenyl)-N-((S)-3-methyl-1,1-dioxidotetrahydrothiophen-3-yl)-4,5,6,7-tetrahydro-1H-indazole-6-carboxamide]	> 10	–
CC(C#N)n1nc(-c2cc(OC(F)F)ccc2F)c2c1C[C@H](C(=O)NC1(C)CS(=O)(=O)C1)CC2 (stereo partly drawn) [Example 79, (6R)-1-(1-cyanoethyl)-3-(5-(difluoromethoxy)-2-fluorophenyl)-N-(3-methyl-1,1-dioxidothietan-3-yl)-4,5,6,7-tetrahydro-1H-indazole-6-carboxamide]	0.0591	–
Cc1nnc(NC(=O)[C@@H]2CCc3c(-c4cccc(OC(F)F)c4)nn(C4CCOCC4)c3C2)s1 [Example 67, (R)-3-(3-(difluoromethoxy)phenyl)-N-(5-methyl-1,3,4-thiadiazol-2-yl)-1-(tetrahydro-2H-pyran-4-yl)-4,5,6,7-tetrahydro-1H-indazole-6-carboxamide]	> 10	–
